# Results taken from US7897582B2, “Oligonucleotide compositions and methods for the modulation of the expression of B7 protein” (Isis Pharmaceuticals, Inc., priority 2003, dated 2011).
# Strand notation (5' to 3'): a small letter for the sugar, then the base; units joined by * are phosphorothioate-linked, units joined directly phosphodiester-linked; [ ] holds rarer units or linkages, { } end groups; capitals alone tell only the bases. d = 2'-deoxy (DNA)
# What was measured:
# [1] = mouse, in vivo
# Description: Antisense oligonucleotides (ASOs) were dissolved in saline and used to intratracheally dose mice every day, four times per day, from days 15-26 of the OVA sensitization and challenge protocol. Specifically, the mice were anesthetized with isofluorane and placed on a board with the front teeth hung from a line. The nose was covered and the animal's tongue was extended with forceps and […] of various doses of ASO, or an equivalent volume of saline (control) was placed at the back of the tongue until inhaled into the lung.
# murine B7-2 (mB7-2) [2] = assay: Murine B7-2 cell surface expression in transfected COS-7 cells by flow cytometry; format: cell-based, mouse
# From the text: Oligonucleotides (see Table 4) capable of inhibiting expression of murine B7-2 transiently expressed in COS-7 cells were identified in the following manner. A series of phosphorothioate oligonucleotides complementary to murine B7-2 (mB7-2) cDNA were screened for their ability to reduce mB7-2 levels (measured by flow cytometry as in Example 2, except that a conjugated anti-mB7-2 antibody (i.e., anti-mCD86-PE, PharMingen, San Diego, Calif.) in COS-7 cells transfected with an mB7-2 cDNA clone. Anti-mB7-2 antibody may also be obtained from the hybridoma deposited at the ATCC under accession No. HB-253. Oligonucleotides (see Table 2) capable of modulating murine B7-1 expression are isolated in like fashion, except that a conjugated anti-mB7-1 antibody is used in conjunction with COS-7 cells transfected with an mB7-1 cDNA clone.
# (§1) B7 antisense oligonucleotides were tested for their effect on cell surface expression of both B7-1 and B7-2. Cell surface expression was measured as described in Example 1. Experiments were done for both human B7 and mouse B7.
# murine B7-2 (mB7-2) [3] = assay: mB7-2 cell surface expression in LPS-induced IC-21 cells by flow cytometry; format: cell-based, mouse; settings: FIG. 9; for levels of induced mB7-2 expression: 3 μM; for reduction in the level of induced mB7-2 expression: 10 μM
# Description: In order to further evaluate the murine B7-2 antisense oligonucleotides, the IC-21 cell line was used. IC-21 monocyte/macrophage cell line expresses both B7-1 and murine B7-2 (mB7-2) constitutively. A 2-fold induction of expression can be achieved by incubating the cells in the presence of lipopolysaccharide (LPS; GIBCO-BRL, Gaithersburg, Md.) (Hathcock et al., Science, 1993, 262, 905).
# IC-21 cells (ATCC; accession No. TIB 186) were seeded at 80% confluency in 12-well plates in DMEM media with 10% FCS. The cells were allowed to adhere to the plate overnight. The following day, the medium was removed and the cells were washed with PBS. Then 500 μL of OptiMEM™ (GIBCO-BRL, Gaithersburg, Md.) supplemented with 15 μg/mL of Lipofectin™ (GIBCO-BRL, Gaithersburg, Md.) was added to each well. Oligonucleotides were then added directly to the medium at the indicated concentrations. After incubation for 4 hours, the cells were washed with PBS and incubated overnight in culture medium supplemented with 15 μg/mL of LPS. The following day, cells were harvested by scraping, then analyzed for cell surface expression by flow cytometry.
# [4] = system: BALB/c mice with heart allograft; assay: Murine heart allograft rejection model; format: in vivo, mouse
# Description: A murine model for evaluating compounds for their ability to inhibit heart allograft rejection has been previously described (Stepkowski et al., J. Immunol., 1994, 153, 5336). This model was used to evaluate the immunosuppressive capacity of antisense oligonucleotides to B7 proteins alone or in combination with antisense oligonucleotides to intercellular adhesion molecule-1 (ICAM-1).
# Heart allograft rejection studies and oligonucleotide treatments of BALB/c mice were performed essentially as previously described (Stepkowski et al., J. Immunol., 1994, 153, 5336). Antisense oligonucleotides used included ISIS 11696, ISIS 3082 (targeted to ICAM-1) and ISIS 1082 (a control oligonucleotide targeted to the herpes virus UL-13 gene sequence). Dosages used were 1, 2, 2.5, 5 or 10 mg/kg of individual oligonucleotide (as indicated below); when combinations of oligonucleotides were administered, each oligonucleotide was given at a dosage of 1, 5 or 10 mg/kg (total oligonucleotide dosages of 2, 10 and 20 mg/kg, respectively). The survival times of the transplanted hearts and their hosts were monitored and recorded.
# CD4+ T cells = assay: T cell proliferation assay, [3H]thymidine incorporation, oligonucleotide-treated APCs plus CD4+ T cells; format: cell-based, human; settings: APCs treated before cytokine induction; FIG. 7
# Description: The ability of ISIS 2302 and ISIS 10373 to inhibit T cell proliferation was evaluated as follows. Monocytes treated with oligonucleotide and cytokines (as in Example 6) were used as antigen presenting cells in a T cell proliferation assay. The differentiated monocytes were combined with CD4+ T cells from a separate donor. After 48 hours, proliferation was measured by [^3H]thymidine incorporation.
# For T cell proliferation assays, cells were isolated from EDTA-treated whole blood as described above, except that a faster migrating band containing the lymphocytes was harvested from just below the interface. Cells were washed as described in Example 6 after which erythrocytes were removed by NH4Cl lysis. T cells were purified using a T cell enrichment column (R&D Systems, Minneapolis, Minn.) essentially according to the manufacturer's directions. CD4+ T cells were further enriched from the entire T cell population by depletion of CD8+ cells with anti-CD8-conjugated magnetic beads (AMAC, Inc., Westbrook, Me.) according to the manufacturer's directions. T cells were determined to be >80% CD4+ by flow cytometry using Cy-chrome-conjugated anti-CD4 mAb (PharMingen, San Diego, Calif.).
# Antigen presenting cells (APCs) were isolated as described in Example 6 and treated with mitomycin C (25 μg/mL) for 1 hour then washed 3 times with PBS. APCs (10^5 cells) were then combined with 4×10^4 CD4+ T cells in 350 μL of culture media. Where indicated, purified CD3 mAb was also added at a concentration of 1 μg/mL. During the last 6 hours of the 48 hour incubation period, proliferation was measured by determining uptake of 1.5 μCi of [^3H]-thymidine per well. The cells were harvested onto filters and the radioactivity measured by scintillation counting.
# B7-2 = B7-2 expression in antigen presenting cells (blood monocytes with IL-4 and GM-CSF), flow cytometry; format: cell-based, human; settings: FIG. 6
# Description: The ability of ISIS 10373 to inhibit expression from the native B7-2 gene in antigen presenting cells (APCs) was evaluated as follows.
# Monocytes were cultured and treated with oligonucleotides as follows. For dendritic cells, EDTA-treated blood was layered onto Polymorphprep™ (1.113 g/mL; Nycomed, Oslo, Norway) and sedimented at 500×g for 30 minutes at 20° C. Mononuclear cells were harvested from the interface. Cells were washed with PBS, with serum-free RPMI media (Moore et al., N.Y. J. Med., 1968, 68, 2054) and then with RPMI containing 5% fetal bovine serum (FBS). Monocytes were selected by adherence to plastic cell culture cell culture dishes for 1 h at 37° C. After adherence, cells were treated with oligonucleotides in serum-free RPMI containing Lipofectin™ (8 μg/mL). After 4 hours, the cells were washed. […] Cells were incubated for 48 hours, after which cell surface expression of various molecules was measured by flow cytometry.
# (§2) Mononuclear cells isolated from fresh blood were treated with oligonucleotide in the presence of cationic lipid to promote cellular uptake. […] Expression of B7-2 protein was measured by flow cytometry according to the methods of Example 2. […]
# ICAM-1 = ICAM-1 expression in antigen presenting cells, flow cytometry; format: cell-based, human
# Description: (§3) Monocytes were cultured and treated with oligonucleotides as follows. For dendritic cells, EDTA-treated blood was layered onto Polymorphprep™ (1.113 g/mL; Nycomed, Oslo, Norway) and sedimented at 500×g for 30 minutes at 20° C. Mononuclear cells were harvested from the interface. Cells were washed with PBS, with serum-free RPMI media (Moore et al., N.Y. J. Med., 1968, 68, 2054) and then with RPMI containing 5% fetal bovine serum (FBS). Monocytes were selected by adherence to plastic cell culture cell culture dishes for 1 h at 37° C. After adherence, cells were treated with oligonucleotides in serum-free RPMI containing Lipofectin™ (8 μg/mL). After 4 hours, the cells were washed. Then RPMI containing 5% FBS and oligonucleotide was added to cells along with interleukin-4 (IL-4; R&D Systems, Minneapolis, Minn.) (66 ng/mL) and granulocyte-macrophage colony-stimulating factor (GM-CSF; R&D Systems, Minneapolis, Minn.) (66 ng/mL) to stimulate differentiation (Romani et al., J. Exp. Med., 1994, 180, 83, 1994). Cells were incubated for 48 hours, after which cell surface expression of various molecules was measured by flow cytometry.
# as §2
# HLA-DR = HLA-DR cell surface expression in antigen presenting cells, flow cytometry; format: cell-based, human
# Description: as §3, §2
# CD3 = CD3 cell surface expression in antigen presenting cells, flow cytometry; format: cell-based, human
# Description: as §3, §2
# human B7-2 = assay: Cell surface expression of B7-2 in transfected COS-7 cells by flow cytometry; format: cell-based
# In short: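 COS-7 cells transfected with B7-2 plasmid (calcium phosphate), then treated with antisense oligonucleotides with 15 μg/mL Lipofectin for 4 h, followed by oligonucleotide in DMEM/10% FCS. After 24-48 h, cells stained with FITC- or PE-conjugated anti-CD86 for 30 min at 4 °C and analysed by flow cytometry.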
# B7-1 = B7-1 cell surface expression in antigen presenting cells, flow cytometry; format: cell-based, human
# Description: as §3, §2
# human B7-1 = assay: Cell surface expression of B7-1 in pcB7-1-transfected COS-7 cells by flow cytometry; format: cell-based; settings: FIG. 5
# Description: The ability of oligonucleotides to inhibit B7-1 expression was evaluated by measuring the cell surface expression of B7-1 in transfected COS-7 cells by flow cytometry.
# A T-175 flask was seeded at 75% confluency with COS-7 cells (ATCC accession No. CRL 1651). The plasmid pcB7-1 was introduced into cells by standard calcium phosphate transfection. Following a 4 hour transfection, the cells were trypsinized and seeded in 12-well dishes at 80% confluency. The cells were allowed to adhere to the plastic for 1 hour and were then washed with phosphate-buffered saline (PBS). OptiMEM™ (GIBCO-BRL, Gaithersburg, Md.) medium was added along with 15 μg/mL of Lipofectin™ (GIBCO-BRL, Gaithersburg, Md.) and oligonucleotide at the indicated concentrations. After four additional hours, the cells were washed with phosphate buffered saline (PBS) and incubated with fresh oligonucleotide at the same concentration in DMEM (Dulbecco et al., Virol., 1959, 8, 396; Smith et al., Virol., 1960, 12, 185) with 10% fetal calf sera (FCS).
# In order to monitor the effects of oligonucleotides on cell surface expression of B7-1, treated COS-7 cells were harvested by brief trypsinization 24-48 hours after oligonucleotide treatment. The cells were washed with PBS, then resuspended in 100 μL of staining buffer (PBS, 0.2% BSA, 0.1% azide) with 5 μL conjugated anti-B7-1-antibody (i.e., anti-hCD80-FITC, Ancell, Bayport, Minn.; FITC: fluorescein isothiocyanate). The cells were stained for 30 minutes at 4° C., washed with PBS, resuspended in 300 μL containing 0.5% paraformaldehyde. Cells were harvested and the fluorescence profiles were determined using a flow cytometer.
# as §1
# The oligonucleotides were screened as described in Example 2 except that the concentration of oligonucleotide was varied as shown in Table 18.
substance,measurement,setting,value
5′-TCCGTCATCGCTCCTCAGGG-3′ [ISIS 13920],deposition pattern in the lung,[1],"taken up throughout the lung, most strongly by antigen presenting cells (APCs) and alveolar epithelium"
"CTA-AGT-AGT-GCT-AGC-CGG-GA (antisense CTAAGTAGTGCTAGCCGGGA; listed as DNA, chemistry not given here) [ISIS 11866, scrambled # 11696, reference compound]",inhibition of murine B7-2 cell surface expression,murine B7-2 (mB7-2) [2]; highest concentration tested (1000 nM),less than 20%
same,levels of induced mB7-2 expression,murine B7-2 (mB7-2) [3],little effect
same,reduction in the level of induced mB7-2 expression,murine B7-2 (mB7-2) [3],40%
GGA-TTG-CCA-AGC-CCA-TGG-TG (GGATTGCCAAGCCCATGGTG; chemistry not given here) [ISIS 11696],IC50,"murine B7-2 (mB7-2) [2]; COS-7 cells, FIG. 8",0.2 to 0.3 µM
same,mean survival time,[4]; 2 mg/kg/day for 7 days,9.3 ± 0.6 days
same,mean survival time,[4]; 10 mg/kg/day for 7 days,9.3 ± 1.3 days
same,levels of induced mB7-2 expression,murine B7-2 (mB7-2) [3],greatly reduced
same,reduction in the level of induced mB7-2 expression,murine B7-2 (mB7-2) [3],inhibited mB7-2 expression completely
"ISIS 2302: antisense oligonucleotide targeted to ICAM-1, an inhibitor of ICAM-1 expression; SEQ ID NO: 17 (antisense GCCCAAGCTGGCATCCGTCA; listed as DNA, chemistry not given here) [reference compound]",T cell proliferative response,CD4+ T cells,blocked
same,effect on B7-2 expression,B7-2,no effect
same,IC50,"ICAM-1; antigen presenting cells, FIG. 6, read-out: IC50, ICAM-1 levels",~0.25 µM
ISIS 10373: phosphorothioate 20-mer to human B7-2 mRNA 0011-0030; 5′-UTR; SEQ ID NO: 16 (antisense dT*dG*dC*dG*dA*dG*dC*dT*dC*dC*dC*dC*dG*dT*dA*dC*dC*dT*dC*dC),T cell proliferative response,CD4+ T cells,blocked
same,cell surface expression of HLA-DR,HLA-DR,did not affect
same,IC50,B7-2,~0.25 µM
same,cell surface expression of CD3,CD3,did not affect
same,effect on B7-2 expression (specificity),human B7-2; FIG. 5,inhibits B7-2 expression
same,cell surface expression of B7-1,B7-1,did not affect
same,effect on B7-1 expression (specificity),human B7-1,little or no effect
same,effect on ICAM-1 expression,ICAM-1; dose of 1 μM,only a slight effect
ISIS 10721: scrambled # 10373; SEQ ID NO: 82 (antisense dC*dG*dA*dC*dA*dG*dC*dT*dC*dC*dT*dG*dC*dG*dC*dT*dC*dC*dT*dC) [reference compound],T cell proliferative response,CD4+ T cells,insignificant effect
same,inhibitory activity on B7-2 cell surface expression,"human B7-2; 200 nM, FIG. 3",no inhibitory activity
